Data on one molecule can be found in US20250319213A1, “FUNCTIONALIZED BISAMINOTHIOL DERIVATIVES, COMPLEXES WITH THESE BISAMINOTHIOL DERIVATIVES AND USE OF SAID COMPLEXES AS DIAGNOSTICS AND THERAPEUTICS” (ABX ADVANCED BIOCHEMICAL COMPOUNDS – BIOMEDIZINISCHE …, priority 2022, published 2025).

The structures appear in SMILES notation.

By Ki is commonly meant a dissociation constant, usually derived from enzyme kinetics or from competition with a known ligand. A higher Ki goes with weaker binding. By Kd is commonly meant the equilibrium constant for the complex coming apart.

Data set [1] has as its target T1, PSMA (Homo sapiens, UniProt Q04609).
T1 construct: host or cells: LNCaP human prostate carcinoma cells
Kind of data set: Competitive binding affinity on LNCaP cells against [68Ga]Ga-PSMA-11 (competition). The following applies: natRe complex of the listed compound, 1 nM [68Ga]Ga-PSMA-11, 1 h 37° C., mean ± SEM. On the procedure: (§1) Competition, saturation and internalization assays were assessed using the high PSMA expressing human prostate carcinoma cell line LNCaP (ATCC® CRL-1740). The cells were grown as monolayer at 37° C. in a humidified atmosphere comprising 5% CO2 and 95% air in RPMI medium including 10% FCS (Merck KGAA, Germany). After washing the confluent cells twice with phosphate buffered saline (PBS) and detaching them with trypsin/EDTA (0.05%/0.02%), the cells were suspended in medium and counted (Casy TT, Omni Life Science, Germany).
For competition monolayer of LNCaP cells were seeded, 1×10^5 cells/well in 24-well plates two days before the assay. On the day of competition, after aspirating the medium, 100 μL of PBS and, for competition 100 μL of different concentrations of the test compound in PBS (10^−12 to 10^−6 M) were pipetted into the wells, simultaneously to 400 μL of medium including 1 nM of [^68Ga]Ga-PSMA-11.
(§2) After 1 hour of incubation at 37° C. both for competition and saturation samples, the supernatants were aspirated and the cells washed twice with cold PBS. The cell lawn was lysed with 500 μL NaOH/SDS (0.1 M/1%) by shaking for 3 to 5 minutes. After transferring the lysates into measuring tubes, the activity of the samples was measured in a gamma counter (2480 Automatic Gamma Counter Wizard 2, Perkin Elmer, USA).
(§3) The half maximal inhibitory concentrations (IC50) and the dissociations constants (Kd) were calculated by fitting the data using a nonlinear curve-fitting program (GraphPad Prism 9). With the Kd value of [^68Ga]Ga-PSMA-11 on LNCaP and the known concentration of [^68Ga]Ga-PSMA-11 in the competition assay the inhibition constants (Ki) was also determined with the curve-fitting program.

The target of data set [2] is T1, PSMA. Kind of data set: Direct binding affinity on LNCaP cells (saturation). The following applies: [99mTc]TcO complex of the listed compound, saturation 0.3-40 nM, 1 h 37° C., mean ± SEM, read-out: Kd [nM] of [99mTc]TcO-complexes. As to the method:
as §1
For saturation monolayer of LNCaP cells were seeded, 5×10^4 cells/well in 48-well plates two days before the assay. On the day of saturation, after aspirating the medium, 160 μL of medium (for ^99mTc-labeled radioligand with D-mannitol (1 mg/mL)) were pipetted per well, for non-specific binding samples including 100 μM 2-PMPA. After preincubation for 5 min, 40 μL activity ([^68Ga]Ga-PSMA-11 or ^99mTc-labeled radioligand solution) were added (total volume/well: 200 μL). Eight concentrations ranged between 0.3 and 40 nM.
as §2, §3

In data set [3] the test system is subcutaneous LNCaP tumor xenografts. Kind of data set: SPECT/CT and PET/CT imaging in LNCaP tumor bearing mice. It is filed as in vivo. The following applies: LNCaP xenograft model. On the procedure: A prostate cancer xenograft model was generated via subcutaneous injection of human LNCaP cells into the right shoulder of 8-12 week-old male nude mice (Rj:NMRI-Foxn1^nu/nu, Janvier Labs, Le Genest-Saint-Isle, France). Imaging studies were performed when tumors reached a diameter of >6 mm. General anesthesia was induced and maintained with inhalation of 10% (v/v) desflurane in […] oxygen/air. During anesthesia, animals were continuously warmed at 37° C.
Small animal single-photon emission computed tomography (SPECT) was performed using the nanoSPECT/CT scanner (Mediso Medical Imaging Systems) equipped with an APT63 aperture consisting of four M3 multi-pinhole collimators. Each animal received 30 MBq of ^99mTc-labeled compounds delivered in 0.2 mL of Dulbecco's phosphate-buffered saline as a single intravenous injection through a tail vein catheter. Photon emission was recorded using frame times of 60 s (1 h scan: 40-70 min), 90 s (4 h scan, 3.5-4.5 h), and 320 s (20 h scan, 18.5-21.5 h), and binned simultaneously within the 20% energy window of the 140.5 keV photopeak. With each SPECT scan, a corresponding CT image was recorded and used for anatomical referencing and attenuation correction. SPECT images were reconstructed using the Tera-Tomo™ three-dimensional (3D) algorithm at normal range with a voxel size of 0.4 mm and applying corrections for scatter attenuation, and decay.
Small animal positron emission tomography (PET) was performed using the nanoPET/CT scanner (Mediso Medical Imaging Systems). Each animal received 10 MBq of the radiolabeled reference compound [^68Ga]Ga-PSMA-11 delivered in Dulbecco's phosphate-buffered saline as a single intravenous injection through a tail vein catheter. Emission of the 511 keV annihilation photons was recorded continuously at a coincidence mode of 1:5 for 60 min following radiotracer injection. With each PET scan, a corresponding CT image was recorded and used for anatomical referencing and attenuation correction. Three-dimensional list mode data were binned using the 400-600 keV energy window. PET images of the 40-60 min time frame were reconstructed using the Tera-Tomo™ three-dimensional (3D) algorithm with a voxel size of 0.4 mm and applying corrections for random events, scatter, attenuation, and decay.
Three-dimensional VOIs were created applying fixed threshold for delineation of tumor (30%), muscle (0%); and kidneys (39%). Standardized uptake values (SUV=[MBq detected activity/mL tissue]/[MBq injected activity/g body weight], mL/g) were determined and reported as max SUV (VOI-maximum). Time-activity curves were generated and further analyzed using Prism (GraphPad Software, San Diego CA, USA).

Where [4] appears, read: as early as 1 hour after injection.

T1 sequence (Q04609 whole entry): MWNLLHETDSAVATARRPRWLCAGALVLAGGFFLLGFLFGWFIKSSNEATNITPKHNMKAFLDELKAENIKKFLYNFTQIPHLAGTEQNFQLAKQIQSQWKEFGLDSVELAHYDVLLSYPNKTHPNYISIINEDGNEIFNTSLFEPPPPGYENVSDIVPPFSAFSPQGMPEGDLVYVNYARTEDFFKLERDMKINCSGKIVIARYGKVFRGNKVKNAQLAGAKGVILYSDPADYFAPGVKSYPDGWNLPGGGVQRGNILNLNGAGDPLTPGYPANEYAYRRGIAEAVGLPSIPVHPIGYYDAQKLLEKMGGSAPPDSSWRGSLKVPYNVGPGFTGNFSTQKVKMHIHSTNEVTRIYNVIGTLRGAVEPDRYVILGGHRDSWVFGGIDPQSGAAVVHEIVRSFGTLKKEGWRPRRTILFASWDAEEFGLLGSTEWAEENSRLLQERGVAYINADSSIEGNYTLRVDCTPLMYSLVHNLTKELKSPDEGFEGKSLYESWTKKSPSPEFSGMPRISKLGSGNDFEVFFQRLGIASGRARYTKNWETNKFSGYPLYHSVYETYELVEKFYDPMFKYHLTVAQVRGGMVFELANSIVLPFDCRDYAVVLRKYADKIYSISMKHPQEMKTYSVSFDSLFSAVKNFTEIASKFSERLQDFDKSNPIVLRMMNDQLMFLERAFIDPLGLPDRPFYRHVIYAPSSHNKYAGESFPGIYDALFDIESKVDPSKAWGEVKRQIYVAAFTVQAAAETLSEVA

With `CC(C)(S)CNCCN(CCCCC(=O)N[C@@H](CCC(=O)O)C(=O)N[C@@H](CCC(=O)O)C(=O)N[C@H](CCCCNC(=O)CCCCCCC(=O)NCCCC[C@H](NC(=O)N[C@@H](CCC(=O)O)C(=O)O)C(=O)O)C(=O)O)CC(C)(C)S` [Compound 5], the affinity on PSMA [1], expressed as Ki, was 9.3 ± 0.9 nM. Moreover, the Kd on PSMA [2] was 7.2 ± 1.7 nM. Besides, the “pharmacokinetic properties and organ distribution compared to the prior art” value in data set [3] was “faster pharmacokinetic properties and a more favorable organ distribution”. Further, in data set [3] (setting [4]), the tumor-to-kidney ratio result is recorded as “High” and the tumor-to-muscle ratio result is “High”.
